One series deals with OVX and ORX mice. Also on record: method as in doi:10.1351/pac200375091197. The following applies: cited from earlier work.
The subject of the next series is ERα. Also on record: method as in doi:10.1351/pac200375091197. Particulars: cited from earlier work.
In series [1] the target is T1, human estrogen receptor α (ERα) (Homo sapiens, UniProt P03372).
T1 sequence (P03372 1-595): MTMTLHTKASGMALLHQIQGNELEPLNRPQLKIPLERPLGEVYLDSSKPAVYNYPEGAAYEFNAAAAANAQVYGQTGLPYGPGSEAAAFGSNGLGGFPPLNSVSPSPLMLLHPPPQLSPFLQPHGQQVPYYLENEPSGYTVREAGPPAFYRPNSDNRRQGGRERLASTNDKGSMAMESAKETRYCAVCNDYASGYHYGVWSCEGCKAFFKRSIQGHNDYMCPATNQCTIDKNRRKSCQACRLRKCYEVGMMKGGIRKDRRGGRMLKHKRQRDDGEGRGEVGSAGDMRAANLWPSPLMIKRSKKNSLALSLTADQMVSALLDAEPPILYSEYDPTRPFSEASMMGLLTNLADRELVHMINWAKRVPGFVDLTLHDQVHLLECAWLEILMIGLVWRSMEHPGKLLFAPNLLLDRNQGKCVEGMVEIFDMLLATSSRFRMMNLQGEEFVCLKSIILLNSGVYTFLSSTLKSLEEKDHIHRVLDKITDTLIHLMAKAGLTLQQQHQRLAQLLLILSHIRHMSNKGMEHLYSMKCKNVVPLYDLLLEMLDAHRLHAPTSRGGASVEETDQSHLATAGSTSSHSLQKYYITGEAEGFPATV
The experiment in a line: Competitive binding assay using [6,7-3H]17β-estradiol and human recombinant ERα (nitrocellulose filter binding). The following applies: for RBA (relative binding affinity): binding affinity of E2 taken as 100, estimated from sigmoidal dose-response curves.
Protocol: The ligand binding activity of human estrogen receptor α (ER α) was determined by a nitrocellulose filter binding assay method. […] Radioactivity that remained in the membrane was measured in Atomlight by using a liquid scintillation counter.
All binding assays were performed in duplicate (n = 2).

A further series relates to MCF-7 cells. Nature of the series: MCF-7 cell proliferation assay (WST-8), in the presence or absence of 0.1 nM E2. The series is classed as cell-based, human. The following applies: for EC50: estrogenic activity, absence of E2, four days; for Emax / IC50: MCF7; for Emax: read-out: Emax (maximal efficacy toward cell proliferation); for IC50: proliferation induced by 0.1 nM of E2, read-out: IC50 (inhibition of MCF-7 cell proliferation). How it is done: Table 1 summarizes the EC50, IC50, and Emax values estimated from the MCF-7 cell proliferation assays. Emax represents the maximal efficacy of each compound toward cell proliferation and is an index of ER partial agonistic activity. Emax was estimated relative to that of E2, which was taken as 100.
The human breast adenocarcinoma cell line MCF-7 was routinely cultivated in DMEM supplemented with 10% FBS and 100 IU/mL penicillin and […] streptomycin at 37 °C in a 5% CO2 humidified incubator. Before an assay, MCF-7 cells were switched to DMEM (low glucose phenol red-free supplemented with 5% FBS, and 100 IU/mL penicillin and […] streptomycin). Cells were trypsinized from the maintenance dish with phenol red-free trypsin-EDTA and seeded in a 96-well plate at a density of 2000 cells per final volume of 100 μL DMEM supplemented with 5% stripped FBS and 100 IU/mL penicillin and […] streptomycin. After 24 h, the medium was removed and 90 μL of fresh medium and 10 μL of drug solution, supplemented with serial dilutions of test compounds or DMSO as dilute control in the presence or absence of 0.1 nM E2, were added to triplicate microcultures. Cells were incubated for four days. At the end of the incubation time, number of cells was counted by using the WST-8, which was added to microcultures 10 μL each, and they were incubated for 2–4 h. The absorbance at 450 nm was measured. This parameter relates to and number of living cells in the culture.
For orientation: Formazan colour is commonly taken as a measure of viable cells.

Another series has as its system ER. Also on record: method as in PMID 15943468. Particulars: cited from earlier work.
[2] abbreviates: Homo sapiens, relative to E2, taken as 100.

Entries after “also recorded” stand apart in the source; their conditions may differ.

The term EC50 denotes the midpoint of the concentration-response curve. A lower EC50 goes with a more potent agent. The term melting point denotes the temperature of the solid-liquid transition.

On to “1,2-bis(4-hydroxyphenyl)-o-carborane [BE360]”, for which the “Estrogenic action in bone and uterus (in words)” value in the series with OVX and ORX mice is given as “estrogenic action in bone without showing estrogenic action in the uterus”. In the series on ERα, the “Binding affinity toward ERα (in words)” value is “high binding affinity toward ERα”.
Turning to “3,4-Bis (4-hydroxyphenyl)-2,3,6,7-tetrahydrothiepine [5a]”, the “RBA (relative binding affinity)” value in series [1] is recorded as 4.9%. Also, in the series with MCF-7 cells, the “Estrogenic / antiestrogenic activity toward MCF-7 (in words)” value is “acted as an agonist toward MCF-7 cell proliferation; also recorded: showed estrogenic activity” and a half-maximal response (EC50) required 0.048 µM. Moreover, the “Emax (maximal efficacy toward cell proliferation)” value in the series on MCF-7 cells (relative to E2, taken as 100) turned out to be 99%.
Turning to `Oc1ccc(C2=C(c3ccc(O)cc3)CSC2)cc1` [4a, 3,4-Bis-(4-hydroxyphenyl)-2,5-dihydrothiophene], in series [1], the “Binding affinity, times lower than that of E2” value is given as “about 100 times” and the “Binding to ERα (in words)” value was “moderately bound to ERα”. Further, in the series on MCF-7 cells, the “Estrogenic / antiestrogenic activity toward MCF-7 (in words)” value was “showed estrogenic activity”. In the series on MCF-7 cells (Homo sapiens, MCF7, 96 h), the EC50 turned out to be 0.39 µM. The Emax in the series on MCF-7 cells (setting [2]) was 119%.
In turn, `[O-][S+]1CC(c2ccc(O)cc2)=C(c2ccc(O)cc2)C1` [4b, 3,4-Bis-(4-hydroxyphenyl)-2,5-dihydrothiophene-1-oxide] gave a melting point of 219 to 220 °C. Moreover, in series [1], the “Binding to ERα (in words)” value is “did not bind to the ERα ligand-binding domain (LBD), even at concentrations 1000 times higher than that of E2” and the “RBA (relative binding affinity)” value is on record as 0.003%.
As to `O=S1(=O)CC(c2ccc(O)cc2)=C(c2ccc(O)cc2)C1` [4c, 3,4-Bis-(4-hydroxyphenyl)-2,5-dihydrothiophene-1,1-dioxide], the melting point fell in the range of 180.5 to 181 °C. In addition, in series [1], the “Binding to ERα (in words)” value is on record as “did not bind to the ERα ligand-binding domain (LBD), even at concentrations 1000 times higher than that of E2” and the “RBA (relative binding affinity)” value was 0.04%. In addition, the “Estrogenic / antiestrogenic activity toward MCF-7 (in words)” value in the series on MCF-7 cells was “showed estrogenic activity”. In the series with MCF-7 cells (Homo sapiens, MCF7, 96 h), this compound yielded an EC50 of 0.3 µM. The Emax with MCF-7 cells (setting [2]) was determined as 130%.
Consider `CN(C)CCCOc1ccc(C2=C(c3ccc(O)cc3)CSC2)cc1` [4d, 4-{4-[4-(3-dimethylaminopropoxy)phenyl]-2,5-dihydrothiophen-3-yl}phenol], for which the melting point is 177 to 178.5 °C. Moreover, the “RBA (relative binding affinity)” value in series [1] is 4.0%. In the series with MCF-7 cells, the “Estrogenic / antiestrogenic activity toward MCF-7 (in words)” value is recorded as “acted as ER antagonists”. Also, the IC50 in the series on MCF-7 cells (Homo sapiens) was found to be 0.41 µM.
Regarding `O=S1(=O)CCC(c2ccc(O)cc2)=C(c2ccc(O)cc2)CC1` [5c, 4,5-Bis (4-hydroxyphenyl)-2,3,6,7-tetrahydrothiepine-1,1-dioxide], the “Estrogenic / antiestrogenic activity toward MCF-7 (in words)” value with MCF-7 cells is on record as “weak estrogenic activity; also recorded: showed estrogenic activity”. The EC50 with MCF-7 cells (Homo sapiens, MCF7, 96 h) was found to be 4.7 µM. In addition, in the series with MCF-7 cells (setting [2]), the Emax was 89%.
On to `CN(C)CCCOc1ccc(C2=C(c3ccc(O)cc3)CCSCC2)cc1` [5d, 4-{5-[4-(3-Dimethylaminopropoxy)phenyl]-2,3,6,7-tetrahydrothiepin-4-yl}phenol], for which the “Estrogenic / antiestrogenic activity toward MCF-7 (in words)” value with MCF-7 cells is “acted as ER antagonists”. For the same compound, the IC50 in the series on MCF-7 cells (Homo sapiens) came to 0.09 µM.
As for `Oc1ccc(C2=C(c3ccc(O)cc3)C3CCC2CC3)cc1` [compound 2], in the series with ER, the “Estrogenic activity (in words)” value was “potent estrogenic activity”.
Turning to `CC1(C)CC(c2ccc(O)cc2)=C(c2ccc(O)cc2)CC1(C)C` [compound 3], in the series on ER, the “Estrogenic activity (in words)” value is on record as “acted as a partial agonist”.

Source of the values: PMC6864722, “Design and Synthesis of Novel Breast Cancer Therapeutic Drug Candidates Based upon the Hydrophobic Feedback Approach of Antiestrogens” (Molecules, 2019).
